Where two headings read alike, the source gives them in different places.
Tested on: 280 human cancer cell lines
Assay: OncoPanel cell proliferation assay (10-day)
Format: cell-based
Conditions: Homo sapiens; for EC50: read-out: Cell Count EC50; for GI50: read-out: Cell Count GI50; for IC50: read-out: Cell Count IC50
[1] = Caov-3, CaOV3, Female GU - Ovary
[2] = ChaGo-K-1, ChaGoK1, Lung - NSCLC
[3] = D341 Med, CNS - Medulloblastoma
[4] = Detroit 562, Detroit 562, Head and Neck
[5] = DoTc2-4510, DoTc2 4510, Lymphoma
[6] = G292, G-292, clone A141B1, Soft Tissue - Osteosarcoma
[7] = HEL 92.1.7, HEL-92-1-7, Leukemia
[8] = HOS, Soft Tissue - Osteosarcoma
[9] = HT-1080, HT-1080, Soft Tissue - Sarcoma
[10] = HUH-6-clone5, HUH-6 Clone 5, Liver
[11] = Hs 821.T, Soft Tissue - Sarcoma
[12] = Hs 888.Sk, Soft Tissue - Osteosarcoma

Compound: CC(C)=CCC[C@@H]1C(O)Oc2c(C)cc(O)c3c2[C@H]1CC[C@H]3C (stereo partly shown) [Compound 2, 5,18-epoxyserrulat-14-en-8,18-diol]
- EC50 [1]: 10.2 µM
- GI50 [1]: 9.61 µM
- IC50 [1]: 10.2 µM
- EC50 (Capan-2, Capan-2, Pancreas): 8.64 µM
- GI50 (Capan-2, Capan-2, Pancreas): 8.48 µM
- IC50 (Capan-2, Capan-2, Pancreas): 8.64 µM
- EC50 [2]: 8.32 µM
- GI50 [2]: 8.26 µM
- IC50 [2]: 8.32 µM
- EC50 [3]: 19.2 µM
- GI50 [3]: 18.7 µM
- IC50 [3]: 19.2 µM
- EC50 (DB, Lymphoma): 3.23 µM
- GI50 (DB, Lymphoma): 3.24 µM
- IC50 (DB, Lymphoma): 3.25 µM
- EC50 (DBTRG-05MG, CNS - Glioma): 12.2 µM
- GI50 (DBTRG-05MG, CNS - Glioma): 12.8 µM
- IC50 (DBTRG-05MG, CNS - Glioma): 13 µM
- EC50 (DK-MG, CNS - Glioma): 1.64 µM
- GI50 (DK-MG, CNS - Glioma): > 30 µM
- IC50 (DK-MG, CNS - Glioma): > 30 µM
- EC50 (DLD-1, DLD-1, Colon): 10.7 µM
- GI50 (DLD-1, DLD-1, Colon): 11.2 µM
- IC50 (DLD-1, DLD-1, Colon): 11.2 µM
- EC50 (DMS-53, DMS53, Lung - SCLC): 5.91 µM
- GI50 (DMS-53, DMS53, Lung - SCLC): 5.75 µM
- IC50 (DMS-53, DMS53, Lung - SCLC): 5.95 µM
- EC50 (DMS-114, DMS114, Lung - SCLC): 11.5 µM
- GI50 (DMS-114, DMS114, Lung - SCLC): 13.1 µM
- IC50 (DMS-114, DMS114, Lung - SCLC): 13.8 µM
- EC50 (DOHH-2, DOHH-2, Lymphoma): 3.24 µM
- GI50 (DOHH-2, DOHH-2, Lymphoma): 3.24 µM
- IC50 (DOHH-2, DOHH-2, Lymphoma): 3.24 µM
- EC50 (DU-145, DU145, Prostate): 21 µM
- GI50 (DU-145, DU145, Prostate): 20.7 µM
- IC50 (DU-145, DU145, Prostate): 21 µM
- EC50 (Daoy, CNS - Medulloblastoma): 8.64 µM
- GI50 (Daoy, CNS - Medulloblastoma): 8.64 µM
- IC50 (Daoy, CNS - Medulloblastoma): 8.65 µM
- EC50 (Daudi, Lymphoma): 3.93 µM
- GI50 (Daudi, Lymphoma): 3.92 µM
- IC50 (Daudi, Lymphoma): 3.93 µM
- EC50 [4]: 14.5 µM
- GI50 [4]: 14.4 µM
- IC50 [4]: 14.5 µM
- EC50 [5]: 6.07 µM
- GI50 [5]: 5.84 µM
- IC50 [5]: 6.07 µM
- EC50 (EB2, Lymphoma): 23.3 µM
- GI50 (EB2, Lymphoma): 23 µM
- IC50 (EB2, Lymphoma): 23.3 µM
- EC50 (EB-3, Lymphoma): 9.72 µM
- GI50 (EB-3, Lymphoma): 9.71 µM
- IC50 (EB-3, Lymphoma): 9.72 µM
- EC50 (EFM-19, EFM-19, Breast): 11.2 µM
- GI50 (EFM-19, EFM-19, Breast): 10.6 µM
- IC50 (EFM-19, EFM-19, Breast): 11.2 µM
- EC50 (EM-2, Leukemia): 10.8 µM
- GI50 (EM-2, Leukemia): 10.8 µM
- IC50 (EM-2, Leukemia): 10.8 µM
- EC50 (FaDu, Head and Neck): 8.66 µM
- GI50 (FaDu, Head and Neck): 8.66 µM
- IC50 (FaDu, Head and Neck): 8.66 µM
- EC50 [6]: 8.8 µM
- GI50 [6]: 8.57 µM
- IC50 [6]: 8.8 µM
- EC50 (G-361, G-361, Skin (Melanoma)): 11.7 µM
- GI50 (G-361, G-361, Skin (Melanoma)): 11.8 µM
- IC50 (G-361, G-361, Skin (Melanoma)): 11.8 µM
- EC50 (G-401, G-401, Kidney): 26 µM
- GI50 (G-401, G-401, Kidney): 26.2 µM
- IC50 (G-401, G-401, Kidney): 26.2 µM
- EC50 (GA-10, GA-10, Lymphoma): 3.72 µM
- GI50 (GA-10, GA-10, Lymphoma): 3.73 µM
- IC50 (GA-10, GA-10, Lymphoma): 3.73 µM
- EC50 (H4, CNS - Glioma): 3.06 µM
- GI50 (H4, CNS - Glioma): > 30 µM
- IC50 (H4, CNS - Glioma): > 30 µM
- EC50 (HCT-15, HCT-15, Colon): 8.64 µM
- GI50 (HCT-15, HCT-15, Colon): 9.48 µM
- IC50 (HCT-15, HCT-15, Colon): 9.49 µM
- EC50 (HCT-116, HCT-116, Colon): 6.68 µM
- GI50 (HCT-116, HCT-116, Colon): 6.67 µM
- IC50 (HCT-116, HCT-116, Colon): 6.68 µM
- EC50 (HEC-1-A, Female GU - Uterus): 12.1 µM
- GI50 (HEC-1-A, Female GU - Uterus): 12 µM
- IC50 (HEC-1-A, Female GU - Uterus): 12.1 µM
- EC50 [7]: 13.4 µM
- GI50 [7]: 13.4 µM
- IC50 [7]: 13.4 µM
- EC50 (HLE, Liver): 10 µM
- GI50 (HLE, Liver): 16 µM
- IC50 (HLE, Liver): 16.4 µM
- EC50 (HLF, Liver): 13.7 µM
- GI50 (HLF, Liver): 15.6 µM
- IC50 (HLF, Liver): 15.7 µM
- EC50 (HMCB, Skin (Melanoma)): 6.68 µM
- GI50 (HMCB, Skin (Melanoma)): 6.57 µM
- IC50 (HMCB, Skin (Melanoma)): 6.68 µM
- EC50 [8]: 4.82 µM
- GI50 [8]: 4.81 µM
- IC50 [8]: 4.82 µM
- EC50 (HPAF-II, Pancreas): 9.46 µM
- GI50 (HPAF-II, Pancreas): 9.6 µM
- IC50 (HPAF-II, Pancreas): 9.62 µM
- EC50 (HT1197, HT-1197, Bladder): 10.7 µM
- GI50 (HT1197, HT-1197, Bladder): 10.3 µM
- IC50 (HT1197, HT-1197, Bladder): 10.7 µM
- EC50 (HT, Lymphoma): 6.51 µM
- GI50 (HT, Lymphoma): 6.43 µM
- IC50 (HT, Lymphoma): 6.51 µM
- EC50 (HT-3, Female GU - Cervix): 17.6 µM
- GI50 (HT-3, Female GU - Cervix): 18.6 µM
- IC50 (HT-3, Female GU - Cervix): 19.3 µM
- EC50 (HT-29, HT-29, Colon): 19.5 µM
- GI50 (HT-29, HT-29, Colon): 19.4 µM
- IC50 (HT-29, HT-29, Colon): 19.5 µM
- EC50 [9]: 3.31 µM
- GI50 [9]: 3.3 µM
- IC50 [9]: 3.31 µM
- EC50 (HT-1376, HT1376, Bladder): 4.71 µM
- GI50 (HT-1376, HT1376, Bladder): 4.47 µM
- IC50 (HT-1376, HT1376, Bladder): 4.71 µM
- EC50 [10]: 15.5 µM
- GI50 [10]: 15.3 µM
- IC50 [10]: 15.5 µM
- EC50 (HeLa, Female GU - Cervix): 16.6 µM
- GI50 (HeLa, Female GU - Cervix): 16.5 µM
- IC50 (HeLa, Female GU - Cervix): 16.6 µM
- EC50 (HepG2, HepG2, Liver): 6.74 µM
- GI50 (HepG2, HepG2, Liver): 6.86 µM
- IC50 (HepG2, HepG2, Liver): 6.95 µM
- EC50 (Hs 229.T, Lung - NSCLC): 29.3 µM
- GI50 (Hs 229.T, Lung - NSCLC): 28.6 µM
- IC50 (Hs 229.T, Lung - NSCLC): 29.8 µM
- EC50 (Hs 294T, Skin (Melanoma)): 7.01 µM
- GI50 (Hs 294T, Skin (Melanoma)): 6.72 µM
- IC50 (Hs 294T, Skin (Melanoma)): 7.01 µM
- EC50 (Hs 445, Hs 445, Lymphoma): 4.34 µM
- GI50 (Hs 445, Hs 445, Lymphoma): 4.23 µM
- IC50 (Hs 445, Hs 445, Lymphoma): 4.34 µM
- EC50 (Hs 611.T, Lymphoma): 10.7 µM
- GI50 (Hs 611.T, Lymphoma): 10.6 µM
- IC50 (Hs 611.T, Lymphoma): 10.7 µM
- EC50 (Hs 683, Hs 683, CNS - Glioma): 29.8 µM
- GI50 (Hs 683, Hs 683, CNS - Glioma): 28.3 µM
- IC50 (Hs 683, Hs 683, CNS - Glioma): 29.8 µM
- EC50 (Hs 688(A).T, Skin (Melanoma)): 11.6 µM
- GI50 (Hs 688(A).T, Skin (Melanoma)): 12.2 µM
- IC50 (Hs 688(A).T, Skin (Melanoma)): 13.2 µM
- EC50 (Hs746T, HS 746T, Stomach): > 30 µM
- GI50 (Hs746T, HS 746T, Stomach): > 30 µM
- IC50 (Hs746T, HS 746T, Stomach): > 30 µM
- EC50 (Hs766T, Hs 766T, Pancreas): 28.4 µM
- GI50 (Hs766T, Hs 766T, Pancreas): 26.2 µM
- IC50 (Hs766T, Hs 766T, Pancreas): 28.4 µM
- EC50 [11]: > 30 µM
- GI50 [11]: 13.9 µM
- IC50 [11]: > 30 µM
- EC50 [12]: 28.3 µM
- GI50 [12]: 27.9 µM
- IC50 [12]: 28.5 µM
- EC50 (Hs 934.T, Skin (Melanoma)): > 30 µM
- GI50 (Hs 934.T, Skin (Melanoma)): 24.1 µM
- IC50 (Hs 934.T, Skin (Melanoma)): > 30 µM
- EC50 (Hs 936.T(C1), Skin (Melanoma)): 3.62 µM
- GI50 (Hs 936.T(C1), Skin (Melanoma)): 3.74 µM
- IC50 (Hs 936.T(C1), Skin (Melanoma)): 3.76 µM
- EC50 (Hs-578T, Hs 578T, Breast): 28.7 µM
- GI50 (Hs-578T, Hs 578T, Breast): 28.2 µM
- IC50 (Hs-578T, Hs 578T, Breast): 28.7 µM
- EC50 (HuCCT-1, HuCCT1, Liver): 22.6 µM
- GI50 (HuCCT-1, HuCCT1, Liver): 22.6 µM
- IC50 (HuCCT-1, HuCCT1, Liver): 22.6 µM
- EC50 (HuP-T4, HuP-T4, Pancreas): > 30 µM
- GI50 (HuP-T4, HuP-T4, Pancreas): > 30 µM
- IC50 (HuP-T4, HuP-T4, Pancreas): > 30 µM
- EC50 (J82, Bladder): 12.9 µM
- GI50 (J82, Bladder): 12.7 µM
- IC50 (J82, Bladder): 12.9 µM
- EC50 (JAR, Placenta): > 30 µM
- GI50 (JAR, Placenta): > 30 µM
- IC50 (JAR, Placenta): > 30 µM
- EC50 (JEG-3, JEG-3, Placenta): > 30 µM
- GI50 (JEG-3, JEG-3, Placenta): > 30 µM
- IC50 (JEG-3, JEG-3, Placenta): > 30 µM
- EC50 (JIYOYE, Lymphoma): 17.8 µM
- GI50 (JIYOYE, Lymphoma): 17.7 µM
- IC50 (JIYOYE, Lymphoma): 17.8 µM
- EC50 (JeKo-1, JeKo-1, Lymphoma): 4.48 µM
- GI50 (JeKo-1, JeKo-1, Lymphoma): 4.47 µM
- IC50 (JeKo-1, JeKo-1, Lymphoma): 4.48 µM
- EC50 (Jurkat, Leukemia): 2.66 µM
- GI50 (Jurkat, Leukemia): 2.65 µM
- IC50 (Jurkat, Leukemia): 2.66 µM
- EC50 (K562, K562, Leukemia): 10.2 µM
- GI50 (K562, K562, Leukemia): 10.1 µM
- IC50 (K562, K562, Leukemia): 10.2 µM
- EC50 (KATO III, Stomach): 8.98 µM
- GI50 (KATO III, Stomach): 16.6 µM
- IC50 (KATO III, Stomach): 16.8 µM
- EC50 (KHOS-240S, Soft Tissue - Osteosarcoma): 4.59 µM
